Measured values from patent US20130072430A1, “METHODS FOR TREATMENT OR PROPHYLAXIS OF KIDNEY OR LIVER DYSFUNCTION” (NPS PHARMACEUTICALS, INC., priority 2010, published 2013).

Tested on: Human patients with short bowel syndrome
Test: Example 1: liver diagnostic biomarkers (total bilirubin, ALT, AST, ALP) in short bowel syndrome patients, every four weeks for 24 weeks
Format: in vivo
Design: AST (SGOT) Change from Baseline, Median / ALT (SGPT), Median / TOTAL BILIRUBIN, Median / TOTAL BILIRUBIN Change from Baseline, Median / ALT (SGPT) Change from Baseline, Median / AST (SGOT), Median: unit not given here
Description: Human patients with short bowel syndrome were divided into three groups: a control group (16 total individuals) to receive placebo, an experimental group (35 total individuals) to receive teduglutide at 0.05 mg/kg/day throughout the study, and an experimental group (32 total individuals) to receive teduglutide at 0.1 mg/kg/day throughout the study. Patients were treated by subcutaneous injection of placebo or the appropriate dose of teduglutide. As individuals with short bowel syndrome are likely to experience associated liver and kidney disease, known biomarkers of liver and kidney function were monitored every four weeks, for 24 weeks. The liver biomarkers tested included total bilirubin, ALT and AST and ALP. The kidney biomarkers tested included urea nitrogen, creatinine and GFR. Before administration of placebo or teduglutide, diagnostic biomarker levels were tested to establish a baseline for each individual.
To visualize the effect of GLP-2 on the levels of the diagnostic biomarkers, the average change from baseline was calculated for the placebo and teduglutide treated groups for each visit after a baseline was established. The average change from baseline of each group is depicted in FIGS. […]. The numerical figures for each diaanostic biomarker at each time point are depicted in Table 1.
The efficacy of teduglutide in treating liver dysfunction was further tested by sorting the data into two groups: individuals with abnormal baseline values of liver diagnostic biomarkers; and individuals with normal baseline values of liver diagnostic biomarkers. The mean diagnostic biomarker change from baseline for these two groups is shown for ALT (FIGS. 5 and 6) and AST (FIGS. 7 and 8). […] These changes were significant when compared to baseline levels for the group, and when compared to placebo (see FIGS. 5 and 7).
The raw data for this sorting is reproduced in Table 2 below.

SMILES: CC[C@H](C)[C@H](NC(=O)[C@H](Cc1ccccc1)NC(=O)[C@H](CC(=O)O)NC(=O)[C@H](CCCNC(=N)N)NC(=O)[C@H](C)NC(=O)[C@H](C)NC(=O)[C@H](CC(C)C)NC(=O)[C@H](CC(N)=O)NC(=O)[C@H](CC(=O)O)NC(=O)[C@H](CC(C)C)NC(=O)[C@@H](NC(=O)[C@@H](NC(=O)[C@H](CC(N)=O)NC(=O)[C@H](CCSC)NC(=O)[C@H](CCC(=O)O)NC(=O)[C@H](CC(=O)O)NC(=O)[C@H](CO)NC(=O)[C@H](Cc1ccccc1)NC(=O)[C@H](CO)NC(=O)CNC(=O)[C@H](CC(=O)O)NC(=O)CNC(=O)[C@@H](N)Cc1c[nH]cn1)[C@@H](C)O)[C@@H](C)CC)C(=O)N[C@@H](CC(N)=O)C(=O)N[C@@H](Cc1c[nH]c2ccccc12)C(=O)N[C@@H](CC(C)C)C(=O)N[C@H](C(=O)N[C@@H](CCC(N)=O)C(=O)N[C@H](C(=O)N[C@@H](CCCCN)C(=O)N[C@H](C(=O)N[C@H](C(=O)N[C@@H](CC(=O)O)C(=O)O)[C@@H](C)O)[C@@H](C)CC)[C@@H](C)O)[C@@H](C)CC [teduglutide]
- ALT (SGPT) Change from Baseline, Median (0.05 mg/kg/day, DW24): −5.0
- ALT (SGPT), Mean (SD) (0.05 mg/kg/day, DW24): 31.7 (26.63)
- ALT (SGPT), Median (0.05 mg/kg/day, DW24): 20.0
- AST (SGOT) Change from Baseline, Mean (SD) (0.05 mg/kg/day, DW24): −6.8 (14.29)
- AST (SGOT) Change from Baseline, Median (0.05 mg/kg/day, DW24): −4.5
- AST (SGOT), Mean (SD) (0.05 mg/kg/day, DW24): 27.7 (10.23)
- AST (SGOT), Median (0.05 mg/kg/day, DW24): 25.0
- TOTAL BILIRUBIN Change from Baseline, Mean (SD) (0.05 mg/kg/day, DW24): −0.5 (7.11)
- TOTAL BILIRUBIN Change from Baseline, Median (0.05 mg/kg/day, DW24): 0.0
- TOTAL BILIRUBIN, Mean (SD) (0.05 mg/kg/day, DW24): 10.0 (6.28)
- TOTAL BILIRUBIN, Median (0.05 mg/kg/day, DW24): 8.0
- ALKALINE PHOSPHATASE Change from Baseline, Mean (SD) (0.10 mg/kg/day, DW4): −11.3 (32.19)
- ALKALINE PHOSPHATASE Change from Baseline, Median (0.10 mg/kg/day, DW4): −10.5
- ALKALINE PHOSPHATASE, Mean (SD) (0.10 mg/kg/day, DW4): 147.5 (74.98)
- ALKALINE PHOSPHATASE, Median (0.10 mg/kg/day, DW4): 124.0
- ALT (SGPT) Change from Baseline, Mean (SD) (0.10 mg/kg/day, DW4): −11.6 (22.98)
- ALT (SGPT) Change from Baseline, Median (0.10 mg/kg/day, DW4): −6.5
- ALT (SGPT), Mean (SD) (0.10 mg/kg/day, DW4): 38.6 (23.30)
- ALT (SGPT), Median (0.10 mg/kg/day, DW4): 30.0
- AST (SGOT) Change from Baseline, Mean (SD) (0.10 mg/kg/day, DW4): −7.3 (15.21)
- AST (SGOT) Change from Baseline, Median (0.10 mg/kg/day, DW4): −5.0
- AST (SGOT), Mean (SD) (0.10 mg/kg/day, DW4): 33.5 (17.00)
- AST (SGOT), Median (0.10 mg/kg/day, DW4): 28.0
- TOTAL BILIRUBIN Change from Baseline, Mean (SD) (0.10 mg/kg/day, DW4): −4.0 (17.41)
- TOTAL BILIRUBIN Change from Baseline, Median (0.10 mg/kg/day, DW4): −1.0
- TOTAL BILIRUBIN, Mean (SD) (0.10 mg/kg/day, DW4): 9.0 (5.65)
- TOTAL BILIRUBIN, Median (0.10 mg/kg/day, DW4): 7.0
- ALKALINE PHOSPHATASE Change from Baseline, Mean (SD) (0.10 mg/kg/day, DW8): −21.2 (41.41)
- ALKALINE PHOSPHATASE Change from Baseline, Median (0.10 mg/kg/day, DW8): −20.0
- ALKALINE PHOSPHATASE, Mean (SD) (0.10 mg/kg/day, DW8): 139.2 (75.84)
- ALKALINE PHOSPHATASE, Median (0.10 mg/kg/day, DW8): 114.0
- ALT (SGPT) Change from Baseline, Mean (SD) (0.10 mg/kg/day, DW8): −15.7 (26.87)
- ALT (SGPT) Change from Baseline, Median (0.10 mg/kg/day, DW8): −8.0
- ALT (SGPT), Mean (SD) (0.10 mg/kg/day, DW8): 34.1 (19.74)
- ALT (SGPT), Median (0.10 mg/kg/day, DW8): 28.5
- AST (SGOT) Change from Baseline, Mean (SD) (0.10 mg/kg/day, DW8): −10.3 (16.56)
- AST (SGOT) Change from Baseline, Median (0.10 mg/kg/day, DW8): −5.0
- AST (SGOT), Mean (SD) (0.10 mg/kg/day, DW8): 29.3 (12.52)
- AST (SGOT), Median (0.10 mg/kg/day, DW8): 28.0
- TOTAL BILIRUBIN Change from Baseline, Mean (SD) (0.10 mg/kg/day, DW8): −3.8 (13.91)
- TOTAL BILIRUBIN Change from Baseline, Median (0.10 mg/kg/day, DW8): −1.0
- TOTAL BILIRUBIN, Mean (SD) (0.10 mg/kg/day, DW8): 9.4 (9.80)
- TOTAL BILIRUBIN, Median (0.10 mg/kg/day, DW8): 7.0
- ALKALINE PHOSPHATASE Change from Baseline, Mean (SD) (0.10 mg/kg/day, DW12): −13.1 (55.43)
- ALKALINE PHOSPHATASE Change from Baseline, Median (0.10 mg/kg/day, DW12): −16.5
- ALKALINE PHOSPHATASE, Mean (SD) (0.10 mg/kg/day, DW12): 145.9 (83.34)
- ALKALINE PHOSPHATASE, Median (0.10 mg/kg/day, DW12): 115.0
- ALT (SGPT) Change from Baseline, Mean (SD) (0.10 mg/kg/day, DW12): −10.6 (30.82)
- ALT (SGPT) Change from Baseline, Median (0.10 mg/kg/day, DW12): −11.0
- ALT (SGPT), Mean (SD) (0.10 mg/kg/day, DW12): 40.4 (22.11)
- ALT (SGPT), Median (0.10 mg/kg/day, DW12): 35.0
- AST (SGOT) Change from Baseline, Mean (SD) (0.10 mg/kg/day, DW12): −3.3 (21.39)
- AST (SGOT) Change from Baseline, Median (0.10 mg/kg/day, DW12): −3.5
- AST (SGOT), Mean (SD) (0.10 mg/kg/day, DW12): 36.4 (20.41)
- AST (SGOT), Median (0.10 mg/kg/day, DW12): 31.5
- TOTAL BILIRUBIN Change from Baseline, Mean (SD) (0.10 mg/kg/day, DW12): −2.9 (12.93)
- TOTAL BILIRUBIN Change from Baseline, Median (0.10 mg/kg/day, DW12): 0.0
- TOTAL BILIRUBIN, Mean (SD) (0.10 mg/kg/day, DW12): 10.3 (11.39)
- TOTAL BILIRUBIN, Median (0.10 mg/kg/day, DW12): 7.0
- ALKALINE PHOSPHATASE Change from Baseline, Mean (SD) (0.10 mg/kg/day, DW16): −21.3 (59.79)
- ALKALINE PHOSPHATASE Change from Baseline, Median (0.10 mg/kg/day, DW16): −20.5
- ALKALINE PHOSPHATASE, Mean (SD) (0.10 mg/kg/day, DW16): 137.7 (81.33)
- ALKALINE PHOSPHATASE, Median (0.10 mg/kg/day, DW16): 108.5
- ALT (SGPT) Change from Baseline, Mean (SD) (0.10 mg/kg/day, DW16): −10.0 (35.59)
- ALT (SGPT) Change from Baseline, Median (0.10 mg/kg/day, DW16): −10.0
- ALT (SGPT), Mean (SD) (0.10 mg/kg/day, DW16): 39.7 (27.97)
- ALT (SGPT), Median (0.10 mg/kg/day, DW16): 30.0
- AST (SGOT) Change from Baseline, Mean (SD) (0.10 mg/kg/day, DW16): −6.6 (22.80)
- AST (SGOT) Change from Baseline, Median (0.10 mg/kg/day, DW16): −4.0
- AST (SGOT), Mean (SD) (0.10 mg/kg/day, DW16): 33.0 (16.71)
- AST (SGOT), Median (0.10 mg/kg/day, DW16): 30.0
- TOTAL BILIRUBIN Change from Baseline, Mean (SD) (0.10 mg/kg/day, DW16): −3.6 (14.89)
- TOTAL BILIRUBIN Change from Baseline, Median (0.10 mg/kg/day, DW16): −0.5
- TOTAL BILIRUBIN, Mean (SD) (0.10 mg/kg/day, DW16): 9.8 (9.14)
- TOTAL BILIRUBIN, Median (0.10 mg/kg/day, DW16): 7.5
- ALKALINE PHOSPHATASE Change from Baseline, Mean (SD) (0.10 mg/kg/day, DW20): −18.5 (63.67)
- ALKALINE PHOSPHATASE Change from Baseline, Median (0.10 mg/kg/day, DW20): −23.0
- ALKALINE PHOSPHATASE, Mean (SD) (0.10 mg/kg/day, DW20): 137.1 (82.59)
- ALKALINE PHOSPHATASE, Median (0.10 mg/kg/day, DW20): 107.0
- ALT (SGPT) Change from Baseline, Mean (SD) (0.10 mg/kg/day, DW20): −8.2 (37.70)
- ALT (SGPT) Change from Baseline, Median (0.10 mg/kg/day, DW20): −9.0
- ALT (SGPT), Mean (SD) (0.10 mg/kg/day, DW20): 41.3 (29.36)
- ALT (SGPT), Median (0.10 mg/kg/day, DW20): 29.0
- AST (SGOT) Change from Baseline, Mean (SD) (0.10 mg/kg/day, DW20): −4.9 (24.96)
- AST (SGOT) Change from Baseline, Median (0.10 mg/kg/day, DW20): −2.5
- AST (SGOT), Mean (SD) (0.10 mg/kg/day, DW20): 34.9 (19.82)
